According to US9617244B2, “Antibacterial quinoline derivatives” (JANSSEN PHARMACEUTICA NV, priority 2012, dated 2017):
Values after ≈ are worked out from the molar mass of the structure shown.

System: Staphylococcus aureus (ATCC29213)
Assay: In-vitro anti-bacterial activity, microtitre plate assay, IC90 determination (non-mycobacterial strains)
Format: cell-based
Conditions: 90% inhibitory concentration for bacterial growth, 24 hours, resazurin fluorescence
Summary of the method: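 Inoculum of about 100 TCID50 (10–60 CFU/well) in Mueller-Hinton broth, serial five-fold compound dilutions, 24 h at 37 °C in air. Growth read by resazurin fluorescence (ex 530/em 590 nm); IC90 in μg/ml as 90% growth inhibition.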

| Structure (SMILES) | IC90 STA B29213 |
| --- | --- |
| COc1nc2ccc(SC)cc2cc1C(c1ccc(Cl)cc1)C1(O)CCNC(Cc2ccc(F)c(F)c2)C1 (stereo not drawn) [Compound 191] | 3.50 µg/mL (≈ 6.31 µM) |
| COc1nc2ccc(Br)cc2cc1C(c1ccccc1)C1(O)CCNC(c2ccc(F)cc2C)C1 (stereo not drawn) [Compound 193] | 5.35 µg/mL (≈ 9.99 µM) |
| COc1nc2ccc(Br)cc2cc1C(c1ccccc1)C1(O)CCNC(c2ccc(F)cc2C)C1 (stereo not drawn) [Compound 194] | 1.69 µg/mL (≈ 3.16 µM) |
| COc1nc2ccc(SC)cc2cc1C(c1ccccc1)C1(O)CCNC(c2ccc(F)cc2C)C1 (stereo not drawn) [Compound 195] | 3.17 µg/mL (≈ 6.31 µM) |
| COc1nc2ccc(SC)cc2cc1C(c1ccccc1)C1(O)CCNC(c2ccc(F)cc2C)C1 (stereo not drawn) [Compound 197] | 1.59 µg/mL (≈ 3.16 µM) |
| COc1nc2ccc(SC)cc2cc1C(c1ccccc1)C1(O)CCNC(c2ccc(F)cc2C)C1 (stereo not drawn) [Compound 198] | 3.17 µg/mL (≈ 6.31 µM) |

Further lines, results first:

| IC90 STA B29213 | Structure (SMILES) |
| --- | --- |
| 7.16 µg/mL (≈ 12.6 µM) | COc1nc2ccc(S(C)(=O)=O)cc2cc1C(c1ccc(Cl)cc1)C1(O)CCNC(c2ccc(F)cc2C)C1 (stereo not drawn) [Compound 199] |
| 5.69 µg/mL (≈ 10 µM) | COc1nc2ccc(S(C)(=O)=O)cc2cc1C(c1ccc(Cl)cc1)C1(O)CCNC(c2ccc(F)cc2C)C1 (stereo not drawn) [Compound 200] |
| 1.80 µg/mL (≈ 3.16 µM) | COc1nc2ccc(S(C)(=O)=O)cc2cc1C(c1ccc(Cl)cc1)C1(O)CCNC(c2ccc(F)cc2C)C1 (stereo not drawn) [Compound 202] |
| 10.80 µg/mL (≈ 20 µM) | CSc1ccc2[nH]c(=O)c(C(c3ccc(Cl)cc3)C3(O)CCNC(Cc4ccc(F)c(F)c4)C3)cc2c1 (stereo not drawn) [Compound 203] |
| 7.16 µg/mL (≈ 12.6 µM) | COc1nc2ccc(S(C)(=O)=O)cc2cc1C(c1ccc(Cl)cc1)C1(O)CCNC(c2ccc(F)cc2C)C1 (stereo not drawn) [Compound 216] |
| 1.27 µg/mL (≈ 2.23 µM) | COc1nc2ccc(S(C)(=O)=O)cc2cc1C(c1ccc(Cl)cc1)C1(O)CCNC(c2ccc(F)cc2C)C1 (stereo not drawn) [Compound 217] |
| 5.69 µg/mL (≈ 10 µM) | COc1nc2ccc(S(C)(=O)=O)cc2cc1C(c1ccc(Cl)cc1)C1(O)CCNC(c2ccc(F)cc2C)C1 (stereo not drawn) [Compound 218] |
| 3.59 µg/mL (≈ 6.31 µM) | COc1nc2ccc(S(C)(=O)=O)cc2cc1C(c1ccc(Cl)cc1)C1(O)CCNC(c2ccc(F)cc2C)C1 (stereo not drawn) [Compound 219] |

Same assay, conditions: Staphylococcus aureus, ATCC29213, 24 h, 90% inhibitory concentration for bacterial growth, resazurin fluorescence, read-out: IC90 STA B29213

| IC90 | Structure (SMILES) |
| --- | --- |
| > 13 µg/mL | COc1nc2ccc(S(C)(=O)=O)cc2cc1C(c1ccccc1)C1(O)CCNC(Cc2ccccc2)C1 (stereo not drawn) [Compound 157] |
| 13.4 µg/mL (≈ 25.1 µM) | COc1nc2ccc(S(C)(=O)=O)cc2cc1C(c1ccccc1)C1(O)CCNC(c2ccc(F)cc2C)C1 (stereo not drawn) [Compound 184] |
| 14.8 µg/mL (≈ 25.1 µM) | COc1nc2ccc(S(C)(=O)=O)cc2cc1C(c1ccc(Cl)cc1)C1(O)CCNC(Cc2ccc(F)c(F)c2)C1 (stereo not drawn) [Compound 211] |

System: not given
Assay: not given
Conditions: not given

| Structure (SMILES) | melting point |
| --- | --- |
| COc1nc2ccc(S(C)(=O)=O)cc2cc1C(c1ccccc1)C1(O)CCNC(Cc2ccccc2)C1 (stereo not drawn) [Compound 157] | 100 °C |
| COc1nc2ccc(S(C)(=O)=O)cc2cc1C(c1ccccc1)C1(O)CCNC(c2ccc(F)cc2C)C1 (stereo not drawn) [Compound 184] | 172 °C |
| COc1nc2ccc(SC)cc2cc1C(c1ccc(Cl)cc1)C1(O)CCNC(Cc2ccc(F)c(F)c2)C1 (stereo not drawn) [Compound 191] | 162 °C |
| COc1nc2ccc(Br)cc2cc1C(c1ccccc1)C1(O)CCNC(c2ccc(F)cc2C)C1 (stereo not drawn) [Compound 193] | 147 °C |
| COc1nc2ccc(Br)cc2cc1C(c1ccccc1)C1(O)CCNC(c2ccc(F)cc2C)C1 (stereo not drawn) [Compound 194] | 149 °C |
| COc1nc2ccc(SC)cc2cc1C(c1ccccc1)C1(O)CCNC(c2ccc(F)cc2C)C1 (stereo not drawn) [Compound 195] | 153 °C |
| COc1nc2ccc(SC)cc2cc1C(c1ccccc1)C1(O)CCNC(c2ccc(F)cc2C)C1 (stereo not drawn) [Compound 197] | 138 °C |
| COc1nc2ccc(SC)cc2cc1C(c1ccccc1)C1(O)CCNC(c2ccc(F)cc2C)C1 (stereo not drawn) [Compound 198] | 187 °C |

Results, then the compound that gave them:

| melting point | Structure (SMILES) |
| --- | --- |
| 192 °C | COc1nc2ccc(S(C)(=O)=O)cc2cc1C(c1ccc(Cl)cc1)C1(O)CCNC(c2ccc(F)cc2C)C1 (stereo not drawn) [Compound 199] |
| 187 °C | COc1nc2ccc(S(C)(=O)=O)cc2cc1C(c1ccc(Cl)cc1)C1(O)CCNC(c2ccc(F)cc2C)C1 (stereo not drawn) [Compound 200] |
| 186 °C | COc1nc2ccc(S(C)(=O)=O)cc2cc1C(c1ccc(Cl)cc1)C1(O)CCNC(c2ccc(F)cc2C)C1 (stereo not drawn) [Compound 202] |
| > 250 °C | CSc1ccc2[nH]c(=O)c(C(c3ccc(Cl)cc3)C3(O)CCNC(Cc4ccc(F)c(F)c4)C3)cc2c1 (stereo not drawn) [Compound 203] |
| 150 °C | COc1nc2ccc(S(C)(=O)=O)cc2cc1C(c1ccc(Cl)cc1)C1(O)CCNC(Cc2ccc(F)c(F)c2)C1 (stereo not drawn) [Compound 211] |
| 152 °C | COc1nc2ccc(S(C)(=O)=O)cc2cc1C(c1ccc(Cl)cc1)C1(O)CCNC(c2ccc(F)cc2C)C1 (stereo not drawn) [Compound 216] |
| 169 °C | COc1nc2ccc(S(C)(=O)=O)cc2cc1C(c1ccc(Cl)cc1)C1(O)CCNC(c2ccc(F)cc2C)C1 (stereo not drawn) [Compound 217] |
| 174 °C | COc1nc2ccc(S(C)(=O)=O)cc2cc1C(c1ccc(Cl)cc1)C1(O)CCNC(c2ccc(F)cc2C)C1 (stereo not drawn) [Compound 218] |
| 156 °C | COc1nc2ccc(S(C)(=O)=O)cc2cc1C(c1ccc(Cl)cc1)C1(O)CCNC(c2ccc(F)cc2C)C1 (stereo not drawn) [Compound 219] |

System: Mycobacterium smegmatis (ATCC607)
Assay: In-vitro anti-bacterial activity against strain M. Smegmatis ATCC607
Format: cell-based
Conditions: 90% inhibitory concentration for bacterial growth, 48 hours, Alamar Blue fluorescence
Summary of the method: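 Serial five-fold compound dilutions in BSA-supplemented wells, inoculated with ~250 CFU/well in Mueller-Hinton broth, incubated 48 h at 37 °C, 5% CO2. Growth read by Alamar Blue fluorescence (ex 530/em 590 nm); IC90 in μg/ml.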

| Structure (SMILES) | IC90 MSM 607 |
| --- | --- |
| COc1nc2ccc(SC)cc2cc1C(c1ccc(Cl)cc1)C1(O)CCNC(Cc2ccc(F)c(F)c2)C1 (stereo not drawn) [Compound 191] | 3.50 µg/mL (≈ 6.31 µM) |
| COc1nc2ccc(Br)cc2cc1C(c1ccccc1)C1(O)CCNC(c2ccc(F)cc2C)C1 (stereo not drawn) [Compound 193] | 5.35 µg/mL (≈ 9.99 µM) |
| COc1nc2ccc(Br)cc2cc1C(c1ccccc1)C1(O)CCNC(c2ccc(F)cc2C)C1 (stereo not drawn) [Compound 194] | 2.68 µg/mL (≈ 5.01 µM) |
| COc1nc2ccc(SC)cc2cc1C(c1ccccc1)C1(O)CCNC(c2ccc(F)cc2C)C1 (stereo not drawn) [Compound 195] | 2.00 µg/mL (≈ 3.98 µM) |
| COc1nc2ccc(SC)cc2cc1C(c1ccccc1)C1(O)CCNC(c2ccc(F)cc2C)C1 (stereo not drawn) [Compound 197] | 1.59 µg/mL (≈ 3.16 µM) |
| COc1nc2ccc(SC)cc2cc1C(c1ccccc1)C1(O)CCNC(c2ccc(F)cc2C)C1 (stereo not drawn) [Compound 198] | 3.17 µg/mL (≈ 6.31 µM) |

Results, then the compound that gave them:

| IC90 MSM 607 | Structure (SMILES) |
| --- | --- |
| 7.16 µg/mL (≈ 12.6 µM) | COc1nc2ccc(S(C)(=O)=O)cc2cc1C(c1ccc(Cl)cc1)C1(O)CCNC(c2ccc(F)cc2C)C1 (stereo not drawn) [Compound 199] |
| 5.69 µg/mL (≈ 10 µM) | COc1nc2ccc(S(C)(=O)=O)cc2cc1C(c1ccc(Cl)cc1)C1(O)CCNC(c2ccc(F)cc2C)C1 (stereo not drawn) [Compound 200] |
| 2.27 µg/mL (≈ 3.99 µM) | COc1nc2ccc(S(C)(=O)=O)cc2cc1C(c1ccc(Cl)cc1)C1(O)CCNC(c2ccc(F)cc2C)C1 (stereo not drawn) [Compound 202] |
| 5.69 µg/mL (≈ 10 µM) | COc1nc2ccc(S(C)(=O)=O)cc2cc1C(c1ccc(Cl)cc1)C1(O)CCNC(c2ccc(F)cc2C)C1 (stereo not drawn) [Compound 216] |
| 0.90 µg/mL (≈ 1.58 µM) | COc1nc2ccc(S(C)(=O)=O)cc2cc1C(c1ccc(Cl)cc1)C1(O)CCNC(c2ccc(F)cc2C)C1 (stereo not drawn) [Compound 217] |
| 2.85 µg/mL (≈ 5.01 µM) | COc1nc2ccc(S(C)(=O)=O)cc2cc1C(c1ccc(Cl)cc1)C1(O)CCNC(c2ccc(F)cc2C)C1 (stereo not drawn) [Compound 218] |
| 1.80 µg/mL (≈ 3.16 µM) | COc1nc2ccc(S(C)(=O)=O)cc2cc1C(c1ccc(Cl)cc1)C1(O)CCNC(c2ccc(F)cc2C)C1 (stereo not drawn) [Compound 219] |

Same assay, conditions: Mycolicibacterium smegmatis, ATCC607, 48 h, 90% inhibitory concentration for bacterial growth, Alamar Blue fluorescence, read-out: IC90 MSM 607

| Structure (SMILES) | IC90 |
| --- | --- |
| COc1nc2ccc(S(C)(=O)=O)cc2cc1C(c1ccccc1)C1(O)CCNC(Cc2ccccc2)C1 (stereo not drawn) [Compound 157] | > 13 µg/mL |
| COc1nc2ccc(S(C)(=O)=O)cc2cc1C(c1ccccc1)C1(O)CCNC(c2ccc(F)cc2C)C1 (stereo not drawn) [Compound 184] | 13.4 µg/mL (≈ 25.1 µM) |

Next, values leading:

| IC90 | Structure (SMILES) |
| --- | --- |
| 6.81 µg/mL (≈ 12.6 µM) | CSc1ccc2[nH]c(=O)c(C(c3ccc(Cl)cc3)C3(O)CCNC(Cc4ccc(F)c(F)c4)C3)cc2c1 (stereo not drawn) [Compound 203] |
| 7.39 µg/mL (≈ 12.6 µM) | COc1nc2ccc(S(C)(=O)=O)cc2cc1C(c1ccc(Cl)cc1)C1(O)CCNC(Cc2ccc(F)c(F)c2)C1 (stereo not drawn) [Compound 211] |
